# Counter-ions that a name gives are not always drawn. Like-named read-outs stand apart in the source and are kept apart here.
# Columns and labels:
# [1] = test system: Escherichia coli NIHJ JC-2; assay: MIC by agar plate dilution method, Escherichia coli NIHJ JC-2; type: cell-based; conditions: NIHJJC2, inoculum size 10^6 cells/ml
# Method: (§1) Subsequently, there were tested the minimal inhibitory concentration (MIC) of the compounds of the present invention against various bacteria and the concentration of the compound in blood after oral administration to rats, and the results are shown.
# (§2) The antibacterial activities of the compound of the present invention against various bacteria (inoculum size: 10^6 cells/ml) were tested by the agar plate dilution method, and the results are shown in the following Table 1.
# [2] = test system: Klebsiella pneumoniae T 25; assay: MIC by agar plate dilution method, Klebsiella pneumoniae T 25; type: cell-based; conditions: T25, inoculum size 10^6 cells/ml
# Method: as §1, §2
# [3] = test system: Bacillus cereus S 1101; assay: MIC by agar plate dilution method, Bacillus cereus S 1101; type: cell-based; conditions: S1101
# Method: as §1, §2
# [4] = test system: Morganella morganii IID 602; assay: MIC by agar plate dilution method, Morganella morganii IID 602; type: cell-based; conditions: IID602
# Method: as §1, §2
# [5] = test system: Staphylococcus aureus FDA 209P-JC; assay: MIC by agar plate dilution method, Staphylococcus aureus FDA 209P-JC; type: cell-based; conditions: FDA209P, inoculum size 10^6 cells/ml
# Method: as §1, §2
# [6] = test system: Serratia marcescens IID 618; assay: MIC by agar plate dilution method, Serratia marcescens IID 618; type: cell-based; conditions: IID618
# Method: as §1, §2
# [7] = concentration of the compound in blood after oral administration to rats; type: in vivo, Male wister rats; conditions: rat, 50 mg/kg, bioassay (Escherichia coli SC507)
# Method: Male wister rats (7 weeks old) were administered orally with the test compound, and the change of the concentration of the compound in blood was measured.
# Dosage of the test compound: 50 mg/kg
# Quantitative method: Bioassy
# (test bacterium: Escherichia coli SC507)
# [8] = Bacillus cereus S 1101, inoculum size 10^6 cells/ml, read-out: MIC
# [9] = Morganella morganii IID 602, inoculum size 10^6 cells/ml, read-out: MIC
# [10] = Serratia marcescens IID 618, inoculum size 10^6 cells/ml, read-out: MIC
Structure (SMILES),MIC [1] [µg/mL],MIC [2] [µg/mL],"MIC [3, 8] [µg/mL]","MIC [4, 9] [µg/mL]",MIC [5] [µg/mL],"MIC [6, 10] [µg/mL]",concentration at 1 h [7] [ng/mL],concentration at 2 h [7] [ng/mL],concentration at 4 h [7] [ng/mL],MIC ([3]; Bacillus cereus) [µg/mL],MIC ([4]; Morganella morganii) [µg/mL],MIC ([6]; Serratia marcescens) [µg/mL]
N#CCSC1=C(C(=O)O)N2C(=O)[C@@H](NC(=O)/C(=N\OCC(=O)O)c3csc(N)n3)[C@H]2SC1 [A],1.56,25,0.2,< 0.1,6.25,0.78,28700,19500,4300,,,
COCCSC1=C(C(=O)O)N2C(=O)[C@@H](NC(=O)/C(=N\OCC(=O)O)c3csc(N)n3)[C@H]2SC1 [B],0.78,6.25,0.39,≤ 0.1,25,1.56,,,,,,
Nc1nc(/C(=N/OCC(=O)O)C(=O)N[C@@H]2C(=O)N3C(C(=O)O)=C(SCCF)CS[C@H]23)cs1 [C],1.56,25,0.2,< 0.1,6.25,1.56,25600,9100,4000,,,
NCCCSC1=C(C(=O)O)N2C(=O)[C@@H](NC(=O)/C(=N\OCC(=O)O)c3csc(N)n3)[C@H]2SC1 [D],0.78,3.13,0.2,0.39,6.25,0.39,11900,16600,15400,,,
Nc1nc(/C(=N/OCC(=O)O)C(=O)N[C@@H]2C(=O)N3C(C(=O)O)=C(SCc4ccccn4)CS[C@H]23)cs1 [E],0.39,1.56,0.39,≤ 0.1,12.5,0.78,,,,,,
NC(=O)CCSC1=C(C(=O)O)N2C(=O)[C@@H](NC(=O)/C(=N\OCC(=O)O)c3csc(N)n3)[C@H]2SC1 [F],1.56,12.5,0.2,0.1,12.5,0.78,,,,,,
"NC(=O)OCCSC1=C(C(=O)O)N2C(=O)[C@@H](NC(=O)/C(=N\OCC(=O)O)c3csc(N)n3)[C@H]2SC1 [G, 7β-{α-(2-aminothiazole-4-yl)-α-[(Z)-carboxymethoxyimino]acetamido}-3-(2-carbamoyloxy)ethylthio-3-cephem-4-carboxylic acid sodium salt]",0.39,6.25,0.2,≤ 0.1,12.5,0.78,,,,,,
"CSC1=C(C(=O)O)N2C(=O)[C@@H](NC(=O)/C(=N\OCC(=O)O)c3csc(N)n3)[C@H]2SC1 [XX, 7{(2-aminothiazole-4-yl)-[(Z)carboxy-methoxyimino]acetamido3-methylthio-3cephem-4-carboxylic acid sodium salt, reference compound]",1.56,25,0.78,0.39,50,1.56,,,,,,
"CC1=C(C(=O)O)N2C(=O)[C@@H](NC(=O)[C@H](N)c3ccccc3)[C@H]2SC1 [YY, Cefalexin, reference compound]",,,,,0.78,,,,,≤ 0.1,200,> 400
